# Test results from patent publication US9770026B2, “Substituted pyrimidine compound and uses thereof” (Shenyang Sinochem Agrochemicals R&D Co., Ltd., priority 2012, dated 2017).
# Key:
# cucumber gray mold = test: fungicidal activity in vitro (inhibition rate) against cucumber gray mold; format: cell-based; settings: 25 ppm, in vitro; read-out: inhibition rate against cucumber gray mold
# armyworm = test: bioactivity test against armyworm, airbrush spray; format: in vivo; settings: 72 h; for pest or weed control at 600 µg/mL: 600 mg/L
# rice blast = test: microbe, parasite or virus in culture; format: cell-based; settings: Pyricularia oryzae; for inhibition at 8.3 ppm: read-out: inhibition rate against rice blast, 8.3 ppm, in vitro; for inhibition at 25 ppm: read-out: inhibition rate against rice blast, 25 ppm, in vitro
# [1] = tested on: Green peach aphids (Myzus Persicae Sulzer); test: bioactivity test against green peach aphid, airbrush foliar spray; format: in vivo; settings: Myzus persicae, foliar, 48 h; for pest or weed control at 5 µg/mL: 5 mg/L; for pest or weed control at 10 µg/mL: 10 mg/L; for pest or weed control at 100 µg/mL: 100 mg/L; for pest or weed control at 600 µg/mL: 600 mg/L; for pest or weed control at 10 ppm / pest or weed control at 100 ppm / pest or weed control at 600 ppm: death rate after 48 hrs
# Summary of the method: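 Death rate was scored at 48 hrs, held at 25±1 C and 60±5% RH, following airbrush foliar spray (0.5 mL, 10 psi) onto cabbage leaf discs bearing about 15-30 aphids. Test solutions: compound dissolved in 1:1 acetone:methanol, brought to concentration with 0.1% tween 80 water.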
# Diamond back moth = test: insecticidal activity against diamond back moth, airbrush spray; format: in vivo; settings: 72 h; for pest or weed control at 100 ppm / pest or weed control at 600 ppm: mortality after 72 hrs, read-out: control (test results against diamond back moth)
# Summary of the method: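 Airbrush leaf-disc spray test: both faces of 2 cm cabbage discs received 0.5 ml of test solution at 0.7 kg/cm^2. Solutions were made in acetone:methanol (1:1) and brought to concentration with 0.1% Tween 80 in water. Ten second-instar larvae per disc, triplicates, were held at 25° C and 60˜70% R.H., with mortality recorded at 72 hrs.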
# carmine spider mite = test: bioactivity test against carmine spider mite, airbrush spray; format: in vivo; settings: Tetranychus cinnabarinus, 72 h; for pest or weed control at 100 µg/mL: 100 mg/L; for pest or weed control at 600 µg/mL: 600 mg/L; for pest or weed control at 100 ppm / pest or weed control at 600 ppm: mortality after 72 hrs
# Summary of the method: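 Broadbean seedlings infested with adult mites were sprayed with compound (acetone/methanol stock diluted in 0.1% Tween 80 water) by airbrush at 0.7 kg/cm^2, 0.5 ml. Three replicates were run. Mortality was scored after 72 hrs.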
# corn rust = test: protectant activity in vivo against corn rust; settings: Zea mays, 168 h; for pest or weed control at 25 µg/mL: read-out: control effect against corn rust (%), 25 mg/L; for pest or weed control at 100 µg/mL: read-out: control effect against corn rust (%), 100 mg/L; for pest or weed control at 400 µg/mL: read-out: control effect against corn rust (%), 400 mg/L; for pest or weed control at 100 ppm: read-out: protectant activity against corn rust in vivo, 100 ppm; for pest or weed control at 400 ppm: read-out: protectant activity against corn rust in vivo, 400 ppm
# cucumber downy mildew = test: protectant activity in vivo against cucumber downy mildew; settings: Cucumis sativus, 168 h; for pest or weed control at 6.25 µg/mL: read-out: control effect against cucumber downy mildew (%), 6.25 mg/L; for pest or weed control at 12.5 µg/mL: read-out: control effect against cucumber downy mildew (%), 12.5 mg/L; for pest or weed control at 25 µg/mL: read-out: control effect against cucumber downy mildew (%), 25 mg/L; for pest or weed control at 50 µg/mL: read-out: control effect against cucumber downy mildew (%), 50 mg/L; for pest or weed control at 100 µg/mL: read-out: control effect against cucumber downy mildew (%), 100 mg/L; for pest or weed control at 400 µg/mL: read-out: control effect against cucumber downy mildew (%), 400 mg/L; for pest or weed control at 6.25 ppm: read-out: protectant activity against cucumber downy mildew in vivo, 6.25 ppm; for pest or weed control at 12.5 ppm: read-out: protectant activity against cucumber downy mildew in vivo, 12.5 ppm; for pest or weed control at 25 ppm: read-out: protectant activity against cucumber downy mildew in vivo, 25 ppm; for pest or weed control at 50 ppm: read-out: protectant activity against cucumber downy mildew in vivo, 50 ppm; for pest or weed control at 100 ppm: read-out: protectant activity against cucumber downy mildew in vivo, 100 ppm
# wheat powdery mildew = test: protectant activity in vivo against wheat powdery mildew; settings: Triticum aestivum, 168 h; for pest or weed control at 100 ppm: read-out: protectant activity against wheat powdery mildew in vivo, 100 ppm; for pest or weed control at 400 ppm: read-out: protectant activity against wheat powdery mildew in vivo, 400 ppm; for pest or weed control at 6.25 µg/mL: read-out: control effect against wheat powdery mildew (%), 6.25 mg/L; for pest or weed control at 6.25 µg/mL / pest or weed control at 25 µg/mL / pest or weed control at 100 µg/mL / pest or weed control at 400 µg/mL: protectant activity; for pest or weed control at 25 µg/mL: read-out: control effect against wheat powdery mildew (%), 25 mg/L; for pest or weed control at 100 µg/mL: read-out: control effect against wheat powdery mildew (%), 100 mg/L; for pest or weed control at 400 µg/mL: read-out: control effect against wheat powdery mildew (%), 400 mg/L
# [2] = contrastive test, read-out: Insecticidal activity against peach aphid (%)
# [3] = contrastive test, read-out: Insecticidal activity against carmine spider mite (% )
# [4] = read-out: Insecticidal activity against armyworm (%)
structure (smiles),measurement,setting,value
Cc1ncnc(NCCc2ccc(Oc3ccc(Cl)cc3)nc2)c1Cl [III-7],inhibition at 25 ppm,cucumber gray mold,80 to 99%
same,pest or weed control at 600 ppm,armyworm; mortality after 72 h,100%
same,inhibition at 0.1 ppm,"rice blast; read-out: inhibition rate against rice blast, 0.1 ppm, in vitro",100%
same,inhibition at 0.3 ppm,"rice blast; read-out: inhibition rate against rice blast, 0.3 ppm, in vitro",100%
same,inhibition at 0.9 ppm,"rice blast; read-out: inhibition rate against rice blast, 0.9 ppm, in vitro",100%
same,inhibition at 2.8 ppm,"rice blast; read-out: inhibition rate against rice blast, 2.8 ppm, in vitro",100%
same,inhibition at 8.3 ppm,rice blast,100%
same,inhibition at 25 ppm,rice blast,100%
same,pest or weed control at 5 µg/mL,[1]; [2],88%
same,pest or weed control at 10 µg/mL,[1]; [2],90%
same,pest or weed control at 100 µg/mL,[1]; [2],100%
same,pest or weed control at 600 µg/mL,[1]; [2],100%
same,pest or weed control at 10 ppm,[1],80 to 99%
same,pest or weed control at 100 ppm,[1],100%
same,pest or weed control at 600 ppm,[1],100%
same,pest or weed control at 100 ppm,Diamond back moth,80 to 99%
same,pest or weed control at 600 ppm,Diamond back moth,100%
same,pest or weed control at 100 µg/mL,carmine spider mite; [3],100%
same,pest or weed control at 600 µg/mL,carmine spider mite; [3],100%
same,pest or weed control at 100 ppm,carmine spider mite,100%
same,pest or weed control at 600 ppm,carmine spider mite,100%
same,pest or weed control at 25 µg/mL,corn rust; protectant activity,100%
same,pest or weed control at 100 µg/mL,corn rust; protectant activity,100%
same,pest or weed control at 400 µg/mL,corn rust; protectant activity,100%
same,pest or weed control at 25 ppm,"corn rust; read-out: protectant activity against corn rust in vivo, 25 ppm",100%
same,pest or weed control at 100 ppm,corn rust,100%
same,pest or weed control at 400 ppm,corn rust,100%
same,pest or weed control at 3.125 µg/mL,"cucumber downy mildew; read-out: control effect against cucumber downy mildew (%), 3.125 mg/L, protectant activity",100%
same,pest or weed control at 6.25 µg/mL,cucumber downy mildew; protectant activity,100%
same,pest or weed control at 12.5 µg/mL,cucumber downy mildew; protectant activity,100%
same,pest or weed control at 25 µg/mL,cucumber downy mildew; protectant activity,100%
same,pest or weed control at 50 µg/mL,cucumber downy mildew; protectant activity,100%
same,pest or weed control at 100 µg/mL,cucumber downy mildew; protectant activity,100%
same,pest or weed control at 400 µg/mL,cucumber downy mildew; protectant activity,100%
same,pest or weed control at 6.25 ppm,cucumber downy mildew,100%
same,pest or weed control at 12.5 ppm,cucumber downy mildew,100%
same,pest or weed control at 25 ppm,cucumber downy mildew,100%
same,pest or weed control at 50 ppm,cucumber downy mildew,100%
same,pest or weed control at 100 ppm,cucumber downy mildew,100%
same,pest or weed control at 400 ppm,"cucumber downy mildew; read-out: protectant activity against cucumber downy mildew in vivo, 400 ppm",100%
same,pest or weed control at 100 ppm,wheat powdery mildew,80 to 99%
same,pest or weed control at 400 ppm,wheat powdery mildew,100%
CCc1ncnc(NCCc2ccc(Oc3ccc(C(F)(F)F)cc3)nc2)c1Cl [III-202],inhibition at 25 ppm,cucumber gray mold,80 to 99%
same,pest or weed control at 10 µg/mL,"armyworm; 10 mg/L, read-out: Insecticidal activity against armyworm (%)",65%
same,pest or weed control at 100 µg/mL,"armyworm; 100 mg/L, read-out: Insecticidal activity against armyworm (%)",100%
same,pest or weed control at 600 µg/mL,armyworm; [4],100%
same,pest or weed control at 100 ppm,"armyworm; 100 ppm, mortality after 72 h",100%
same,pest or weed control at 600 ppm,armyworm; mortality after 72 h,100%
same,inhibition at 25 ppm,rice blast,80 to 99%
same,pest or weed control at 1.25 µg/mL,"[1]; 1.25 mg/L, contrastive test, read-out: Insecticidal activity against peach aphid (%)",94%
same,pest or weed control at 2.5 µg/mL,"[1]; 2.5 mg/L, contrastive test, read-out: Insecticidal activity against peach aphid (%)",100%
same,pest or weed control at 5 µg/mL,[1]; [2],100%
same,pest or weed control at 10 µg/mL,[1]; [2],100%
same,pest or weed control at 100 µg/mL,[1]; [2],100%
same,pest or weed control at 600 µg/mL,[1]; [2],100%
same,pest or weed control at 10 ppm,[1],100%
same,pest or weed control at 100 ppm,[1],100%
same,pest or weed control at 600 ppm,[1],100%
same,pest or weed control at 100 ppm,Diamond back moth,80 to 99%
same,pest or weed control at 600 ppm,Diamond back moth,100%
same,pest or weed control at 100 ppm,carmine spider mite,100%
same,pest or weed control at 600 ppm,carmine spider mite,100%
same,pest or weed control at 100 ppm,corn rust,100%
same,pest or weed control at 400 ppm,corn rust,100%
same,pest or weed control at 6.25 µg/mL,cucumber downy mildew; protectant activity,100%
same,pest or weed control at 12.5 µg/mL,cucumber downy mildew; protectant activity,100%
same,pest or weed control at 25 µg/mL,cucumber downy mildew; protectant activity,100%
same,pest or weed control at 50 µg/mL,cucumber downy mildew; protectant activity,100%
same,pest or weed control at 100 µg/mL,cucumber downy mildew; protectant activity,100%
same,pest or weed control at 400 µg/mL,cucumber downy mildew; protectant activity,100%
same,pest or weed control at 6.25 ppm,cucumber downy mildew,100%
same,pest or weed control at 12.5 ppm,cucumber downy mildew,100%
same,pest or weed control at 25 ppm,cucumber downy mildew,100%
same,pest or weed control at 50 ppm,cucumber downy mildew,100%
same,pest or weed control at 100 ppm,cucumber downy mildew,100%
same,pest or weed control at 6.25 µg/mL,wheat powdery mildew,95%
same,pest or weed control at 25 µg/mL,wheat powdery mildew,100%
same,pest or weed control at 100 µg/mL,wheat powdery mildew,100%
same,pest or weed control at 400 µg/mL,wheat powdery mildew,100%
same,pest or weed control at 6.25 ppm,"wheat powdery mildew; read-out: protectant activity against wheat powdery mildew in vivo, 6.25 ppm",80 to 99%
same,pest or weed control at 25 ppm,"wheat powdery mildew; read-out: protectant activity against wheat powdery mildew in vivo, 25 ppm",100%
same,pest or weed control at 100 ppm,wheat powdery mildew,100%
same,pest or weed control at 400 ppm,wheat powdery mildew,100%
"CCC(Nc1ncnc(C)c1Cl)c1ccc(OC(F)F)cc1 (centres unmarked) [diflumetorim, reference compound]",inhibition at 25 ppm,cucumber gray mold,0%
same,pest or weed control at 600 µg/mL,armyworm; [4],0%
same,inhibition at 8.3 ppm,rice blast,0%
same,pest or weed control at 10 µg/mL,[1]; [2],0%
same,pest or weed control at 100 µg/mL,[1]; [2],35%
same,pest or weed control at 600 µg/mL,[1]; [2],100%
same,pest or weed control at 600 µg/mL,Diamond back moth; 600 mg/L,0%
same,pest or weed control at 10 µg/mL,"carmine spider mite; 10 mg/L, contrastive test, read-out: Insecticidal activity against carmine spider mite (% )",73%
same,pest or weed control at 100 µg/mL,carmine spider mite; [3],100%
same,pest or weed control at 600 µg/mL,carmine spider mite; [3],100%
same,pest or weed control at 6.25 µg/mL,"corn rust; read-out: control effect against corn rust (%), 6.25 mg/L, protectant activity",0%
same,pest or weed control at 25 µg/mL,corn rust; protectant activity,10%
same,pest or weed control at 100 µg/mL,corn rust; protectant activity,80%
same,pest or weed control at 400 µg/mL,corn rust; protectant activity,100%
same,pest or weed control at 6.25 µg/mL,cucumber downy mildew; protectant activity,0%
same,pest or weed control at 12.5 µg/mL,cucumber downy mildew; protectant activity,15%
same,pest or weed control at 25 µg/mL,cucumber downy mildew; protectant activity,70%
same,pest or weed control at 50 µg/mL,cucumber downy mildew; protectant activity,100%
same,pest or weed control at 100 µg/mL,cucumber downy mildew; protectant activity,100%
same,pest or weed control at 400 µg/mL,cucumber downy mildew; protectant activity,100%
same,pest or weed control at 6.25 µg/mL,wheat powdery mildew,90%
same,pest or weed control at 25 µg/mL,wheat powdery mildew,95%
same,pest or weed control at 100 µg/mL,wheat powdery mildew,95%
same,pest or weed control at 400 µg/mL,wheat powdery mildew,100%
